Test results published in US9243024B2, “Aptamer-mediated drug release” (priority 2009, dated 2016).

What was measured:
[1] = test system: matrix-displayed aptamer (SEQ ID NO:11) on Biacore SA chip; test: Biacore SPR: loading and release from aptamer-coated SA chip; type: binding
Method: For SPR experiments, Biacore X system and commercially available Biacore SA sensor chips from Biacore AB (Uppsala, Sweden) were used.
A 1 μM solution of aptamer aptamer 5′-/5BioTEG//iSp18//iSp18/ATCTCGGTCTCGGGACGACAGGATTTTCCTCAATGAAGTGGGTCGTCCCGAGA (SEQ ID NO:11) in 10 mM HEPES at pH 7.4, 150 mM NaCl, and 3 mM EDTA (in HBS-EP) was applied to one of the SA sensor chip's two channels for 20 min at 4 μL min^−1, followed by a 120 sec wash with 4 M urea/15 mM EDTA to remove any nonspecifically adsorbed material. The aptamer used for these SPR experiments was shorter by two bases relative to the aptamer used in the microsphere experiments (see SEQ ID NO:7). According to the Biacore SA chip literature, the matrix was a highly irregular 3D dextran hydrogel recognition matrix with a height of approximately 100-200 nm and an uneven distribution of streptavidin. The matrix was coated with biotinylated aptamer containing two 18-atom hexaethylene glycol spacers between the biotin and the oligonucleotide. On the basis of changes in SPR response, the aptamer was coated at saturation densities of 0.12-to-0.15 pmol mm^−2, an estimated average inter-aptamer distance of 10-to-11 nm (based on a 100 nm height for the dextran layer. 1.2-to-1.6 molecules of insulin-conjugate bound per aptamer on initial loading, with oligonucleotide binding (i.e. no insulin attached) at 1.2 per aptamer. Where possible, the channel with no aptamer or insulin-conjugate/oligonucleotide deposited acted as a blank for correction of system influence. When the additional channel was not able to be used as a blank, data for the first 10 minutes of any buffer change was omitted due to artifacts occurring in this time period caused by washes with the new buffer.
Matrix-Aptamer Hybridization with (5). (5) 1 μM in NaCl (140 mM), KCl (5 mM), and MgCl2 (1.2 mM), buffered to pH 7.4 with Tris (20 mM), was dispensed on the aptamer displaying channel at 1 μL min^−1 until saturation (80 min), with the other channel used as a system influence control when possible. Monitoring of conjugate (5) release was taken 15 minutes after the end of the conjugate (5) application time to allow for weak non-specifically bound conjugate to be washed from the surface. Conjugate dissociation in real time was measured through the decrease in mass, again using the formula 1000 R.U.=[…]. In some experiments, instrumental instabilities were observed as occasional spikes in sensorgrams during long-time monitoring.
Release of the insulin-conjugate (i→ii in FIG. 1A) was studied in two different systems: 1) release from a dextran matrix (SA-Chip, Biacore), under continuous flow, with surface plasmon resonance (SPR) monitoring, and 2) release from the surface of non-porous beads followed by fluorescence monitoring. […]

[2] = test system: aptamer (SEQ ID NO:7) functionalized microspheres loaded with conjugate (5); test: Triggered release of insulin conjugate (5) from aptamer coated microspheres, fluorescence monitoring
Method: (for a biotin binding site:aptamer ratio of 5:1) Streptavidin functionalized magnetic microspheres (Bangs Laboratories), 2 mL, were washed with HEPES 10 mM/NaCl 150 mM/pH 7.4 buffer 3×2 mL, using a magnet to separate out the microspheres from the washings. The microspheres were suspended in 1 mL of the same buffer. The aptamer 5′-/5BioTEG//iSp18//iSp18/ATCTCGGTCTCGGGACGACAGGATTTTCCTCAATGAAGTGGGTCGTCCCGAGACC-3′ (SEQ ID NO:7) (IDT, Coralville, Iowa, USA), 2 nmoles, was dissolved in 10 mL of the buffer and added slowly drop-wise to the microsphere suspension under continuous shaking. The mixture was incubated for one hour and then washed 3×, once with a 1 mL volume then twice with 200 μL volumes after transfer to a 1.5 mL microcentrifuge tube. The washed microspheres were resuspended in 1 mL of buffer and stored at 4° C. until use. For a biotin binding site:aptamer ratio of 1:1, i.e. saturated, 800 μL of microspheres were prepared as above, with the exception that they were resuspended in 400 uL of buffer with 8 nmoles of aptamer then added.
Aptamer functionalized microspheres (200 uL containing 0.4 nmoles of aptamer were washed 1×200 μL of binding buffer and then resuspended in 100 μl of the same buffer. The insulin-PEO12-oligonucleotide conjugate in 0.5 nmoles, in 37 μL of water, was added to the suspension and incubated, with constant mixing by inversion, overnight at room temperature, protected from light.
All release experiments were carried out in water containing NaCl (140 mM), KCl (5 mM), and MgCl2 (1.2 mM), buffered to pH 7.4 with Tris (20 mM). Streptavidin coated microspheres were mixed with biotinylated aptamer to obtain aptamer coated microspheres, see above for detailed preparation. […] On addition of six micromolar quinine at three and one half hours an additional pulse with analogous characteristics of the first pulse was observed. A third analogous pulse can be triggered using eighteen micromolar quinine. […]

Spiegelmer (L-MNS) = Spiegelmer (L-MNS) binding of quinine; conditions: same conditions as MNS-1/1-Q
Source text: ) binding of quinine. […] from ChemGenes (Wilmington, Mass.). Note that the sequence and label are same as mns-1, 1-Q, measurement conditions and concentrations were also the same (see FIG. 4, and Materials and Methods section in Example section 6). […] Oligonucleotides MNS-1 and 1-Q were custom-made and HPLC purified by Integrated DNA Technologies, Inc (Coralville, Iowa, USA) and were used as received. The base sequence for MNS-1 is: 5'-fluorescein-[NT] ID NO:4), and 1-Q is: 5'-[NT]-dabcyl (SEQ ID NO:5). […] (St. Louis, Mo., USA). All measurements were performed in 20 mM Tris-HCl pH 7.4, 140 mM NaCl, 5 mM KCl, 2 mM MgCl2. […] Measurements were performed after an incubation time of 30 min. The measurements were performed on a Perkin-Elmer Victor II microplate reader (Wallac, Finland) with a 485-nm excitation filter and a 535-nm emission filter.

cocaine aptamer MNS-1 = test: Fluorescence screening of FDA approved drugs against fluorescein-labeled aptamer MNS-1 with DABCYL quencher oligonucleotide 1-Q; type: binding; conditions: 20 mM Tris-HCl pH 7.4, 50 nM MNS-1, 150 nM 1-Q, 30 min incubation
Method: Oligonucleotides MNS-1 and 1-Q were custom-made and HPLC purified by Integrated DNA Technologies, Inc (Coralville, Iowa, USA) and were used as received. The base sequence for MNS-1 is: 5′-fluorescein-ATCTCGGGACGACAGGATTTTCCTCAATGAAGTGGGTCGTCCC (SEQ ID NO:4), and 1-Q is: 5′-GTC GTC CCG AGA T-dabcyl (SEQ ID NO:5). All compounds (except cocaine) were purchased from Sigma-Aldrich Co. (St. Louis, Mo., USA). All measurements were performed in 20 mM Tris-HCl pH 7.4, 140 mM NaCl, 5 mM KCl, 2 mM MgCl2. Mixture of MNS-1 and 1-Q was incubated for 5 min at room temperature, then a series of standard dilutions of all compounds were added to the mixture solutions of MNS-1 and 1-Q to final concentrations of 50 nM and 150 nM respectively. Measurements were performed after an incubation time of 30 min. The measurements were performed on a Perkin-Elmer Victor II microplate reader (Wallac, Finland) with a 485-nm excitation filter and a 535-nm emission filter. […]

[3] = test system: rat hepatoma cell insulin signaling pathways (McA-RH7777); test: Tissue culture and insulin signaling assay; type: cell-based; conditions: 100 nM for 10 min, McA-RH7777 cells, in triplicate
Method: McA-RH7777, rat hepatoma cells were grown in DMEM media with 20% fetal bovine serum. Cells were incubated in serum-free medium for 5 hours and treated with insulin and insulin-oligonucleotide conjugate at the concentration of 100 nM for 10 min. Cell lysates were prepared in SDS lysis buffer (2% SDS, 62.5 mM Tris HCL (pH 6.8), 10% glycerol, 50 mM DTT, 0.01% Bromophenol Blue). All antibodies were purchased from Cell Signaling Technology (Danvers, Mass.).

## 5′-TCTCGGGACGACCCACTTCATTG-3′ (TCTCGGGACGACCCACTTCATTG; listed as DNA, chemistry not given here) [oligonucleotide inhibitor]
[1]; 1 μM inhibitor, SPR
  blocking of insulin-conjugate release in the presence of quinine: block the release of the insulin-conjugate

## C[C@]12CCC(=O)C=C1CC[C@@H]1[C@@H]2[C@@H](O)C[C@@]2(C)[C@H]1CC[C@]2(O)C(=O)COC(=O)CCC(=O)O [hydrocortisone-21-hemisuccinate (HHS), hydrocortisone-21-hemisuccinate]
[2]; 250 μM, soaking for a total of 60 minutes
  triggering of insulin conjugate release from microspheres: sluggishly
[2]; higher concentrations than 250 μM
  triggering of insulin conjugate release from microspheres: significant release of the conjugate

## C=C[C@H]1C[N@@]2CC[C@H]1C[C@H]2[C@H](O)c1ccnc2ccc(OC)cc12 [quinine]
Spiegelmer (L-MNS)
  binding to the spiegelmer of the aptamer: bound to the spiegelmer of the aptamer
[1]; 0, 2 and 8 μM quinine, or 1.5, 6 and 18 μM after pre-washing the chip, SPR
  insulin-conjugate boluses by escalating quinine concentrations: desired profile with three postprandial boluses
Cocaine aptamer MNS-1
  Kd: ~600 nM
[2]; two micromolar quinine, pH 7.4
  triggered release of (5) from microspheres: a pulse of (5) was released

## Fluorescein-5′-GTC GTC CCG AGA CCG AGA T-3′-L1-Insulin [insulin conjugate]
[3]
  activity of insulin conjugate on insulin signaling: full activity
[1]; SA chip (Biacore), fitted from 15 to 25 minutes
  line of best fit slope of initial rate data for dissociation: −0.1399 fmol mm^−2 min^−1
[1]; SA chip (Biacore), no quinine
  observed initial dissociation rate: 0.14 fmol mm^−2 min^−1
